The values that follow come from patent publication US20230151065A1, “MULTI-DISULFIDE-BOND LONG-CHAIN PEPTIDE WITH NEURO[…], PHARMACEUTICAL COMPOSITION AND APPLICATION” (priority 2018, published 2023).

Where no end group is shown, it is not given here.

Type in all cases: cell-based
For experiment [1], the system named is primary fetal rat hippocampal neurons. Kind of experiment: Growth of hippocampal neurons, label-free real time cell analysis (RTCA). As to conditions: ABPPk2 4, 20, 100 ng/ml. How it is done:
(1) Primary culture of fetal rat hippocampal neurons: after a rat pregnant for 17 days was anesthetized, a fetal rat was taken out under sterile conditions; the brain of the fetal rat was taken out on ice; the hippocampus was carefully taken out under a dissecting microscope; and the blood vessel membranes were removed. 0.125% trypsin/EDTA was digested at 37° C. for 10 min, and the digestion was stopped by adding the DMEM complete medium containing 10% FBS. Cell debris were removed through centrifugal at 1000 rpm for 5 min; the DMEM complete medium was added to resuspend the cells; the cells were gently blown until a single cell suspension was formed; and the cells were inoculated at an appropriate density on a culture plate (dish) pre-coated with polylysine (PLL) and cultured at 37° C., 5% CO2 incubator. After 4 h, the cells were adhered to the wall; the DMEM complete medium was discarded and replaced with neurobasal medium containing different concentrations of ABPPk2 (the concentrations of ABPPk2 were 4 ng/ml, 20 ng/ml and 100 ng/ml); the neurobasal medium containing 10 ng/ml BDNF was used as the positive control group, and neurobasal was used as the negative control group. […]

For experiment [2] the test system is unchanged. Briefly: Growth cones and neurite growth of hippocampal neurons, immunocytochemical staining. The following applies: vs negative control. On the procedure: (1) Primary culture of fetal rat hippocampal neurons: after a rat pregnant for 17 days was anesthetized, a fetal rat was taken out under sterile conditions; the brain of the fetal rat was taken out on ice; the hippocampus was carefully taken out under a dissecting microscope; and the blood vessel membranes were removed. 0.125% trypsin/EDTA was digested at 37° C. for 10 min, and the digestion was stopped by adding the DMEM complete medium containing 10% FBS. Cell debris were removed through centrifugal at 1000 rpm for 5 min; the DMEM complete medium was added to resuspend the cells; the cells were gently blown until a single cell suspension was formed; and the cells were inoculated at an appropriate density on a culture plate (dish) pre-coated with polylysine (PLL) and cultured at 37° C., 5% CO2 incubator. After 4 h, the cells were adhered to the wall; the DMEM complete medium was discarded and replaced with neurobasal medium containing different concentrations of ABPPk2 (the concentrations of ABPPk2 were 4 ng/ml, 20 ng/ml and 100 ng/ml); the neurobasal medium containing 10 ng/ml BDNF was used as the positive control group, and neurobasal was used as the negative control group.
(4) The immunocytochemical staining method was used to observe the effect of ABPPk2 on the growth cones of primary fetal rat hippocampal neuron neurites. Primary hippocampal neurons were cultured according to the steps in (1), and the cells were inoculated on small round slides pre-coated with PLL at a density of 5×10^4, and then placed on a 24-well culture plate for culturing. Grouping and treatment were as described above. After 24 h, double-labeled immunocytofluorescent chemical staining of β-tubulin3 (TRITC) and F-actin (FITC) was conducted; the growth of the neurons was observed under a laser confocal microscope; and the area of the neuron growth cone and the length of filopodia were counted, as shown in FIG. 23.
(5) The immunocytochemical staining method was used to observe the effect of ABPPk2 on the growth of primary fetal rat hippocampal neuron neurites. Primary hippocampal neurons were cultured according to the steps in (1), and the cells were inoculated on small round slides pre-coated with PLL at a density of 5×10^4, and then placed on a 24-well culture plate for culturing. Grouping and treatment were as described above. […] The length of the neurites started from the axon hillock of the cell body to the top of the axon. The number of the neurites from the neuron cell bodies refers to the neurites directly connected with the cell bodies, as shown in FIG. 24.
(6) β-tubulin3 […]; the growth of the neurites was observed under the laser confocal microscope; the number of neurite branches and the proportion of the neurites with different lengths were counted; and the number of neurite branches refers to the number of branches of the neurites in a circle with a neuron cell body as the center and a radius of 100 μm.

In experiment [3] the test system is primary cultured SD fetal rat cortical neurons after OGD damage. Kind of experiment: OGD damage of cortical neurons, CCK-8 activity. The following applies: OGD 2 h, 24 h reoxygenation; ABPPk2 8, 40, 200 ng/ml; effect more obvious as dose increased. On the procedure: The suspension was filtered with a 400-mesh screen, centrifuged at 1000 rpm for 5 min, and blown to form the single cell suspension. DMEM high glucose complete medium (containing 10% fetal bovine serum) was inoculated in a culture dish or culture plate pre-coated with polylysine (PLL) to culture in 5% CO2 incubator with saturated humidity at 37° C. After the cells were cultured for 4 h to adhere to the wall, the cells were cultured with neuron culture medium (neurobasal+2% B27) for 3 d to observe the growth of neurons. The culture medium containing cytarabine (the final concentration of cytarabine was 2.5 μg/ml) was substituted with half quantity to culture for 3d to inhibit the growth of glial cells and miscellaneous cells to obtain purely cultured primary cortical nerve cells. The purity of the cortical neurons was identified by immunocytochemical staining as more than 90%.
After the cortical neurons were cultured to the 7th day, the original culture medium was sucked out, and the cells were rinsed twice with sugar-free DMEM basal medium, for 5 min each time. […]
Analysis of cortical neuron activity after OGD damage and drug treatment: cortical neurons were inoculated into 96-well plates at 1×10^6 cells/ml; and 100 μl cell suspension was added to each well. […] The absorbance (OD) value of the sample in each well was measured on the microplate reader at 450 nm wavelength. […]

Setting [4] is: ABPPk2 4, 20, 100 ng/ml, 12 h as printed (24 h in method).

Regarding “Cys-Leu-Glu-Ser-Gly-Thr-Ser-Cys-Ile-Pro-Gly-Ala-Gln-His-Asn-Cys-Cys-Ser-Gly-Val-Cys-Val-Pro-Ile-Val-Thr-Ile-Phe-Tyr-Gly-Val-Cys-Tyr (CLESGTSCIPGAQHNCCSGVCVPIVTIFYGVCY; disulfide (positions not given here); not fully specified (bridges); also: three disulfide bonds, pairing not given here) [ABPPk2, 33 amino acid polypeptide isolated from the extract of Achyranthes bidentata Blume, three pairs of disulfide bonds]”, the “growth of hippocampal neurons (cell index, RTCA)” value in experiment [1] is “can promote the growth of the hippocampal neurons and the extension of neurites”. Besides, in experiment [2] (setting [4]), the “area of the neuron growth cone” value is given as “the area of the growth cone can be significantly increased” and the length of filopodia entry is reported as “the length of the filopodia can be increased”. In experiment [2] (ABPPk2 for 24 h), the “length of the neurites” value was “the extension of hippocampal neuronal neurites can be significantly promoted” and the “number of the neurites from the neuron cell bodies” value is given as “the number of the neurites from the neuron cell bodies can be significantly increased”. Further, in experiment [2] (ABPPk2 for 48 h), the “number of neurite branches” value is given as “increased significantly” and the “proportion of long neurite neurons” value is “significantly higher than that of the negative control group”. Besides, the “cortical neuron activity (CCK-8)” value in experiment [3] is recorded as “can effectively antagonize the decrease of cortical neuron activity caused by OGD damage”.
